# Measurements taken from patent US4416885A, “Use of isopropylaminopyrimidine in the chemotherapy of muscular dystrophy, myopathy and myotonia” (priority 1982, dated 1983).
# Assays:
# [1] = tested on: dystrophic 413 muscle explants; assay: Microtubule complexes in muscle explants of injected dystrophic chickens; assay type: in vivo, chicken
# Text: Essentially, these experiments were divided into three subgroups, taken from the previous Table:
# 413A, 413B, 412A, 412B: All were sacrificed after 4 injections and muscle explants placed in culture.
# 413C, 412C: All were sacrificed after 8 injections and muscle explants were placed in culture.
# 413D, 412D: All were sacrificed after 10 injections and muscle explants placed in culture.
# All explants were placed in CMRL culture medium containing 5% horse serum, 15% fetal bovine serum and 1% antibiotics and allowed to grow for 5-7 days before being fixed and observed for the presence or absence of microtubules. No IAPP was added to the culture medium during the 5-7 days in culture.
# Carrier monocytes = assay: Effect on human monocytes in culture (flat cells), carrier; assay type: cell-based; settings: carrier monocytes + IAPP, six individuals, cultured 5-7 days; without IAPP 35.3%; preliminary
# Text: In the experiments adding IAPP to such cultures, the preliminary results were as follows: […]
# [2] = tested on: plasma CPK (creatine phosphokinase); assay: Plasma CPK; assay type: in vivo, chicken
# Experimental: Chemotherapy was assessed by application of seven different parameters: physical tests of muscular disability, namely the flip test and wing apposition (W.A.) measurements; biochemical assays of serum and muscle enzume levels of creatine phosphokinase (CPK), pyruvate kinase (PK) and acetylcholinesterase (AChE); and histological comparisons of treated and untreated muscle. Toxicity studies (weight loss, etc.) were also used. A very comprehensive profile of the drug was thus obtained which related to all the known, highly characteristic features of the disease which are applicable to both the animal model and the human.
# Plasma CPK rises dramatically in the dystrophic chicken as it does also in the human disease. The normal chicken has 200-300 U/l CPK, compared to about 20,000 U/l in the untreated dystrophic chicken at its peak. It rises to these high levels over a period of two months and is, therefore, a significant index of the disease. […]
# (§1) Finally, oral therapy with IAPP was undertaken at gradually increasing dosages up to 1 g/Kg/day. The parameters (physical, biochemical and histological) measured previously were again used to test the efficacy of the drug; five different dosages were used orally, each being given for 30-60 days, daily (Tables VII-XI). A total of 75 animals were treated in the current study with IAPP and 70 control animals were used.
# [3] = tested on: dystrophic New Hampshire chickens, line 413; assay: Wing apposition (WA) measurements; assay type: in vivo, chicken
# Experimental: The compound IAPP was tested on dystrophic New Hampshire chickens, line 413, and Imperial College (London, England) sub-line of the original Davis, University of California strain. The chickens are homozygous for muscular dystrophy, the disease appearing with 100% incidence.
# This can be defined as the minimum separation in cm to which the two wing tips can be passively raised, providing a measure of the characteristic loss is flexibility of the wing muscle-tendon system. The test is performed once weekly. In dystrophic birds, WA changes after the first three weeks of life from 0 cm (wings raised and touching) to about 18 cm at 3 months (wings stiff and can barely be raised). The normal controls maintain a score of 0 cm throughout. […]
# as §1
# [4] = 200 mg/Kg i.p. daily for 30 days, day 28 ex ovo
# [5] = 200 mg/Kg i.p. daily for 30 days, day 45 ex ovo
# [6] = 200 mg/Kg i.p. daily for 30 days, day 56 ex ovo
# [7] = 200 mg/Kg i.p. daily for 30 days, day 84 ex ovo
# [8] = 300 mg/Kg i.p. daily for 30 days, day 28 ex ovo
# [9] = 300 mg/Kg i.p. daily for 30 days, day 45 ex ovo
# [10] = 300 mg/Kg i.p. daily for 30 days, day 56 ex ovo
# [11] = 300 mg/Kg i.p. daily for 30 days, day 84 ex ovo
# [12] = 300 mg/Kg i.p. three times weekly for 30 days, day 28 ex ovo
# [13] = 300 mg/Kg i.p. three times weekly for 30 days, day 45 ex ovo
# [14] = 300 mg/Kg i.p. three times weekly for 30 days, day 84 ex ovo
# [15] = Table VII, oral 200 mg/Kg, 60 days, day 28 ex ovo
# [16] = Table VII, oral 200 mg/Kg, 60 days, day 35 ex ovo
# [17] = Table VII, oral 200 mg/Kg, 60 days, day 45 ex ovo
# [18] = Table VII, oral 200 mg/Kg, 60 days, day 60 ex ovo
# [19] = oral 300 mg/Kg daily, day 28 ex ovo
# [20] = oral 300 mg/Kg daily, day 35 ex ovo
# [21] = oral 450 mg/Kg daily for 45 days, day 28 ex ovo
# [22] = oral 450 mg/Kg daily for 45 days, day 35 ex ovo
# [23] = oral 450 mg/Kg daily for 45 days, day 50 ex ovo
# [24] = oral 600 mg/Kg daily, day 28 ex ovo
# [25] = oral 600 mg/Kg daily, day 35 ex ovo
# [26] = oral 600 mg/Kg daily, day 50 ex ovo
# [27] = oral 1 g/Kg daily, day 28 ex ovo
# [28] = oral 1 g/Kg daily, day 35 ex ovo
smiles,measurement,setting,value
"CC(C)Nc1ncccn1.O=P(O)(O)O [IAPP, 2-isopropylaminopyrimidine orthophosphate]",% Full Complexes Microtubules,"[1]; 413B, Subgroup A, after 4 injections of 50 mg/Kg, 413A control 31%",58%
same,% Full Complexes Microtubules,"[1]; 413C, Subgroup B, after 8 injections of 50 mg/Kg",60%
same,% Full Complexes Microtubules,"[1]; 413D, Subgroup C, after 10 injections of 50 mg/Kg",74%
same,% Flat Cells,Carrier monocytes,50.0%
same,CPK,[2]; [4],478 mU/ml
same,"CPK, % change from control",[2]; [4],-61%
same,CPK,[2]; [5],4810 mU/ml
same,"CPK, % change from control",[2]; [5],-40%
same,CPK,[2]; [6],5412 mU/ml
same,"CPK, % change from control",[2]; [6],-48%
same,CPK,[2]; [7],"13,540 mU/ml"
same,"CPK, % change from control",[2]; [7],-36%
same,CPK,[2]; [8],651 mU/ml
same,"CPK, % change from control",[2]; [8],-46%
same,CPK,[2]; [9],4505 mU/ml
same,"CPK, % change from control",[2]; [9],-44%
same,CPK,[2]; [10],7629 mU/ml
same,"CPK, % change from control",[2]; [10],-27%
same,CPK,[2]; [11],"24,248 mU/ml"
same,"CPK, % change from control",[2]; [11],+15%
same,CPK,[2]; [12],651 mU/ml
same,"CPK, % change from control",[2]; [12],-46%
same,CPK,[2]; [13],6076 mU/ml
same,"CPK, % change from control",[2]; [13],-24%
same,CPK,"[2]; 300 mg/Kg i.p. three times weekly for 30 days, day 56 ex ovo",7944 mU/ml
same,CPK,[2]; [14],"16,602 mU/ml"
same,"CPK, % change from control",[2]; [14],-21%
same,% CPK Change vs untreated dystrophic controls,"[2]; Exp. 2, 40 mg/Kg i.p. daily, day 7-13",-8%
same,% CPK Change vs untreated dystrophic controls,"[2]; Exp. 2, 40 mg/Kg i.p. daily, day 14-20",-46%
same,% CPK Change vs untreated dystrophic controls,"[2]; Exp. 2, 40 mg/Kg i.p. daily, day 21-27",-21%
same,% CPK Change vs untreated dystrophic controls,"[2]; Exp. 2, 40 mg/Kg i.p. daily, day 28-34",-59%
same,% CPK Change vs untreated dystrophic controls,"[2]; Exp. 2, 40 mg/Kg i.p. daily, day 35-41",-57%
same,% CPK Change vs untreated dystrophic controls,"[2]; Exp. 2, 40 mg/Kg i.p. daily, day 42-48",-72%
same,% CPK Change vs untreated dystrophic controls,"[2]; Exp. 2, 40 mg/Kg i.p. daily, day 56-62",-47%
same,% CPK Change vs untreated dystrophic controls,"[2]; Exp. 2, 40 mg/Kg i.p. daily, day 63-71",-32%
same,% CPK Change vs untreated dystrophic controls,"[2]; Exp. 3, 70 mg/Kg i.p. daily, day 21-27",-51%
same,% CPK Change vs untreated dystrophic controls,"[2]; Exp. 3, 70 mg/Kg i.p. daily, day 28-34",-53%
same,CPK,[2]; [15],3496 mU/ml
same,"CPK, % change from control",[2]; [15],-31%
same,CPK,[2]; [16],7336 mU/ml
same,"CPK, % change from control",[2]; [16],-1%
same,CPK,[2]; [17],9638 mU/ml
same,"CPK, % change from control",[2]; [17],-18%
same,CPK,[2]; [18],"10,860 mU/ml"
same,"CPK, % change from control",[2]; [18],-24%
same,Reduction in plasma CPK levels,"[2]; oral 200 mg/Kg, 60 days",moderate reduction
same,CPK,[2]; [19],3794 mU/ml
same,"CPK, % change from control",[2]; [19],-23%
same,CPK,[2]; [20],6690 mU/ml
same,"CPK, % change from control",[2]; [20],-30%
same,CPK,[2]; [21],4713 mU/ml
same,"CPK, % change from control",[2]; [21],-18%
same,CPK,[2]; [22],6483 mU/ml
same,"CPK, % change from control",[2]; [22],-24%
same,CPK,[2]; [23],"17,975 mU/ml"
same,"CPK, % change from control",[2]; [23],+30%
same,CPK,[2]; [24],2658 mU/ml
same,"CPK, % change from control",[2]; [24],-53%
same,CPK,[2]; [25],4712 mU/ml
same,"CPK, % change from control",[2]; [25],-45%
same,CPK,[2]; [26],9084 mU/ml
same,"CPK, % change from control",[2]; [26],-34%
same,CPK,[2]; [27],2217 mU/ml
same,"CPK, % change from control",[2]; [27],-63%
same,CPK,[2]; [28],4018 mU/ml
same,"CPK, % change from control",[2]; [28],-68%
same,"WA, treated","[3]; 200 mg/Kg i.p. daily for 30 days, day 28 ex ovo, control 0.4",1.0 cm
same,"WA, treated","[3]; 200 mg/Kg i.p. daily for 30 days, day 45 ex ovo, control 0.6",1.5 cm
same,"WA, treated","[3]; 200 mg/Kg i.p. daily for 30 days, day 84 ex ovo, control 8.3",8.6 cm
same,"WA, treated","[3]; 300 mg/Kg i.p. daily for 30 days, day 28 ex ovo, control 0.4",0.3 cm
same,"WA, treated","[3]; 300 mg/Kg i.p. daily for 30 days, day 45 ex ovo, control 0.6",1.6 cm
same,"WA, treated","[3]; 300 mg/Kg i.p. daily for 30 days, day 84 ex ovo, control 9.3",14.4 cm
same,"WA, treated","[3]; 300 mg/Kg i.p. three times weekly for 30 days, day 28 ex ovo, control 0.4",0.3 cm
same,"WA, treated","[3]; 300 mg/Kg i.p. three times weekly for 30 days, day 45 ex ovo, control 0.6",2.0 cm
same,"WA, treated","[3]; 300 mg/Kg i.p. three times weekly for 30 days, day 84 ex ovo, control 8.3",11.1 cm
same,"WA, treated","[3]; Exp. 2, 40 mg/Kg i.p. daily, day 7-13, control 0",0 cm
same,"WA, treated","[3]; Exp. 2, 40 mg/Kg i.p. daily, day 14-20, control 0",0 cm
same,"WA, treated","[3]; Exp. 2, 40 mg/Kg i.p. daily, day 21-27, control 0",0 cm
same,"WA, treated","[3]; Exp. 2, 40 mg/Kg i.p. daily, day 28-34, control 0",0 cm
same,"WA, treated","[3]; Exp. 2, 40 mg/Kg i.p. daily, day 35-41, control 2.1",0 cm
same,"WA, treated","[3]; Exp. 2, 40 mg/Kg i.p. daily, day 42-48, control 4.7",2.3 cm
same,"WA, treated","[3]; Exp. 2, 40 mg/Kg i.p. daily, day 56-62, control 5.7",2.9 cm
same,"WA, treated","[3]; Exp. 2, 40 mg/Kg i.p. daily, day 63-71, control 7.5",6.1 cm
same,"WA, treated","[3]; Exp. 3, 70 mg/Kg i.p. daily, day 14-20, control 0",0 cm
same,"WA, treated","[3]; Exp. 3, 70 mg/Kg i.p. daily, day 21-27, control 0",0 cm
same,"WA, treated","[3]; Exp. 3, 70 mg/Kg i.p. daily, day 28-34, control 0",0 cm
same,"WA, treated","[3]; Table VII, oral 200 mg/Kg, 60 days, day 28 ex ovo, control 0.8",0.8 cm
same,"WA, treated","[3]; Table VII, oral 200 mg/Kg, 60 days, day 35 ex ovo, control 1.2",2.5 cm
same,"WA, treated","[3]; Table VII, oral 200 mg/Kg, 60 days, day 45 ex ovo, control 3.4",4.3 cm
same,"WA, treated","[3]; Table VII, oral 200 mg/Kg, 60 days, day 60 ex ovo, control 9.6",10.7 cm
same,"WA, treated","[3]; oral 300 mg/Kg daily, day 28 ex ovo, control 1.6",1.4 cm
same,"WA, treated","[3]; oral 300 mg/Kg daily, day 35 ex ovo, control 1.3",4.5 cm
same,"WA, treated","[3]; oral 450 mg/Kg daily for 45 days, day 28 ex ovo, control 0.2",0.7 cm
same,"WA, treated","[3]; oral 450 mg/Kg daily for 45 days, day 35 ex ovo, control 2.8",1.9 cm
same,"WA, treated","[3]; oral 450 mg/Kg daily for 45 days, day 45 ex ovo, control 5.5",5.8 cm
same,"WA, treated","[3]; oral 450 mg/Kg daily for 45 days, day 50 ex ovo, control 6.2",7.6 cm
same,"WA, treated","[3]; oral 600 mg/Kg daily, day 28 ex ovo, control 0.2",0.3 cm
same,"WA, treated","[3]; oral 600 mg/Kg daily, day 35 ex ovo, control 2.8",1.1 cm
same,"WA, treated","[3]; oral 600 mg/Kg daily, day 45 ex ovo, control 5.5",3.5 cm
same,"WA, treated","[3]; oral 600 mg/Kg daily, day 50 ex ovo, control 6.2",5.5 cm
